ChEMBL document CHEMBL1926501 (J Med Chem, 2011)

What was measured:
[1] = biological target: T1, Amine oxidase [flavin-containing] B (Rattus norvegicus, UniProt P19643)
T1 sequence (P19643 whole entry): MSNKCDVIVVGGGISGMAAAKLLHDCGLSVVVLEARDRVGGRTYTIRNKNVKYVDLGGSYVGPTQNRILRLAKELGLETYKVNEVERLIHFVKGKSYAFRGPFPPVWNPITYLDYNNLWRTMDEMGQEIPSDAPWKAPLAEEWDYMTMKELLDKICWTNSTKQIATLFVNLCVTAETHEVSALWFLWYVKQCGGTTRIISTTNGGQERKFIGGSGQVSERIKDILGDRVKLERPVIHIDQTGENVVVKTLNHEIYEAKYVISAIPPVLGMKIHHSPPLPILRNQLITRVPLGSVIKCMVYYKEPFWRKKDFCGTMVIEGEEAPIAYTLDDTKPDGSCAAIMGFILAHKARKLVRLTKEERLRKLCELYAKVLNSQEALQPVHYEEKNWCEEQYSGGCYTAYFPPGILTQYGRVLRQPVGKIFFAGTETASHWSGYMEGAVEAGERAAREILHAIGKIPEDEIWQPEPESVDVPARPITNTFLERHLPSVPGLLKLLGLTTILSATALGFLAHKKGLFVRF
Description: Inhibition of rat liver mitochondrial MAO-B using [14C]-phenylethylamine after 30 mins by scintillation counting

[2] = biological target: T2, Amine oxidase [flavin-containing] A (Rattus norvegicus, UniProt P21396)
T2 sequence (P21396 whole entry): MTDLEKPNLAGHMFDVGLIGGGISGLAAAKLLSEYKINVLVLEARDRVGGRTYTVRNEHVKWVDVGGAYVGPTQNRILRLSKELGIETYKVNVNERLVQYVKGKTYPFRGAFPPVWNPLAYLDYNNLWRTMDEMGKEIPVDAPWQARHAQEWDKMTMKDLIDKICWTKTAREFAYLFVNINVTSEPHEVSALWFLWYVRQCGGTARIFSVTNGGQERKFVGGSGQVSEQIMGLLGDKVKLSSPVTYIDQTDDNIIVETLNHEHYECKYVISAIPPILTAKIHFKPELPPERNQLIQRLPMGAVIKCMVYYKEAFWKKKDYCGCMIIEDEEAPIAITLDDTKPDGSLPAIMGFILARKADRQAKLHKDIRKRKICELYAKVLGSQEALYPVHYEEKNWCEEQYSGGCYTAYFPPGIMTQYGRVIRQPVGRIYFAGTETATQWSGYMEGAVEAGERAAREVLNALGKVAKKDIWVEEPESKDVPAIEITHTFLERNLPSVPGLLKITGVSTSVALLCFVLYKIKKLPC
Description: Inhibition of rat liver mitochondrial MAO-A using [14C]-5-hydroxytryptamine after 30 mins by scintillation counting

Acetylcholinesterase [3] = biological target: Acetylcholinesterase (Electrophorus electricus, UniProt O42275)
Chain of Acetylcholinesterase (Electrophorus electricus, UniProt O42275) (O42275 whole entry): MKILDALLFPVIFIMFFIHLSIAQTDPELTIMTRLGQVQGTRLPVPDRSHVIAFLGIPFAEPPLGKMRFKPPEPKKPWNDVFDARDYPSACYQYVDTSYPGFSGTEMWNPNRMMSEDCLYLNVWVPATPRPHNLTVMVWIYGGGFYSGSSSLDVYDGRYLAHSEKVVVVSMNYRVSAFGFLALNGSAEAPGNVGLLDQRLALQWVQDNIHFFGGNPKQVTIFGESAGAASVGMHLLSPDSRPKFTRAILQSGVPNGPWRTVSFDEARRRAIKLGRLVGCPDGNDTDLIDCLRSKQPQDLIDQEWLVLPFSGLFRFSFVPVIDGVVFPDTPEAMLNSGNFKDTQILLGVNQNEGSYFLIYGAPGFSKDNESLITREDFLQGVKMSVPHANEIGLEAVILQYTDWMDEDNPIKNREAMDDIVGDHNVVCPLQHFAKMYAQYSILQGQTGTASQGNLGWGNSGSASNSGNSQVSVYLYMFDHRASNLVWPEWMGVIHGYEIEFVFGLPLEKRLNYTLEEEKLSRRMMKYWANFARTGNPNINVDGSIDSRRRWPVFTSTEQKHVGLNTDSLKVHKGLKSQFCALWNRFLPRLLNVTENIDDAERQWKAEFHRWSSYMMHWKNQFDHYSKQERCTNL
Description: Inhibition of Electrophorus electricus AchE using acetylthiocholine iodide as substrate preincubated for 10 mins measured after 15 mins of substrate addition by Ellman's method

[4] = biological target: T2, Amine oxidase [flavin-containing] A; experiment: Irreversible inhibition of rat liver mitochondrial MAO-A using 5-hydroxytryptamine as substrate at 6 nM preincubated for 30 mins measured after three consecutive washes with buffer; details: 0.006 µM
[5] = biological target: T1, Amine oxidase [flavin-containing] B; experiment: Irreversible inhibition of rat liver mitochondrial MAO-B using phenylethylamine as substrate assessed as substrate consumption at 100 nM measured up to 420 mins; details: 7 h, 0.1 µM
[6] = biological target: T1, Amine oxidase [flavin-containing] B; experiment: Non-competitive inhibition of rat liver mitochondrial MAO-B using phenylethylamine as substrate by Line-Weaver Burk plot analysis
Acetylcholinesterase [7] = biological target: T3, Acetylcholinesterase (Homo sapiens, UniProt P22303); experiment: Inhibition of cerebral human recombinant AchE expressed in HEK293 cells using acetylthiocholine iodide as substrate preincubated for 10 mins measured after 15 mins of substrate addition by Ellman's method
T3 sequence (P22303 whole entry): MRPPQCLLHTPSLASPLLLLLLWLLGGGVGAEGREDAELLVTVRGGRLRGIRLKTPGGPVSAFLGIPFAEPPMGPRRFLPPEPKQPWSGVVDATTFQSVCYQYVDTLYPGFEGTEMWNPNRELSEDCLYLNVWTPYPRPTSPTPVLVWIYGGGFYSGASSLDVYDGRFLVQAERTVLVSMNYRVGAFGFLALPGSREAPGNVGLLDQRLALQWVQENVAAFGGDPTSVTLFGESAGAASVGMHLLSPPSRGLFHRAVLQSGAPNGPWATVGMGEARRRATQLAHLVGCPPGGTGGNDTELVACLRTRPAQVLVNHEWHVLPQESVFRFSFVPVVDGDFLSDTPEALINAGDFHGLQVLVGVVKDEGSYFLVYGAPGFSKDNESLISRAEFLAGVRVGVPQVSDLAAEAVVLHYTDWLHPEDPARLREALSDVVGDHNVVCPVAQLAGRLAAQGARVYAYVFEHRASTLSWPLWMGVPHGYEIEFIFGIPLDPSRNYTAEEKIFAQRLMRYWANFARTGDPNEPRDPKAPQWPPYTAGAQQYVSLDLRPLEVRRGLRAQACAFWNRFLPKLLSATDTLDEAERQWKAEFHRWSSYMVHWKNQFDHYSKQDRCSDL

Cholinesterase [8] = biological target: Cholinesterase (Homo sapiens, UniProt P06276); experiment: Inhibition of human serum BuchE using butyrylthiocholine iodide as substrate preincubated for 10 mins measured after 15 mins of substrate addition by Ellman's method
Chain of Cholinesterase (Homo sapiens, UniProt P06276) (P06276 whole entry): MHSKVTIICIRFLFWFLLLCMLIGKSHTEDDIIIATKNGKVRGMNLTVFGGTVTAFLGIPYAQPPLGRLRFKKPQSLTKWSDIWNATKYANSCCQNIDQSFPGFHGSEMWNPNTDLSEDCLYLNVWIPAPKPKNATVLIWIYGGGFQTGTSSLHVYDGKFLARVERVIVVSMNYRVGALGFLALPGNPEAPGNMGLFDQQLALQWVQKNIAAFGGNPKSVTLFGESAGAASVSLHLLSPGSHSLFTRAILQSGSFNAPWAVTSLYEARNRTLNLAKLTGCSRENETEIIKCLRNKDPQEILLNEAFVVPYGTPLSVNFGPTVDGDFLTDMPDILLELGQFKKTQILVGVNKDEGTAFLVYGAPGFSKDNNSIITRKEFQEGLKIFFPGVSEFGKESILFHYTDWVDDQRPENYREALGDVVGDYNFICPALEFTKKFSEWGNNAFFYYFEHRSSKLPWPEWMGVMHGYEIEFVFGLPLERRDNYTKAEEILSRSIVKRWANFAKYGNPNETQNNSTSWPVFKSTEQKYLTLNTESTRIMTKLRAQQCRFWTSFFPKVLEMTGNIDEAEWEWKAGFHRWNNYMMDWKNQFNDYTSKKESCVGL

[9] = biological target: T2, Amine oxidase [flavin-containing] A; experiment: Irreversible inhibition of rat liver mitochondrial MAO-A using 5-hydroxytriptamine as substrate assessed as substrate consumption at 10 nM preincubated for 30 mins measured up to 420 mins; details: 7 h, 0.01 µM
[10] = biological target: T2, Amine oxidase [flavin-containing] A; experiment: Irreversible inhibition of rat liver mitochondrial MAO-A using 5-hydroxytriptamine as substrate assessed as substrate consumption at 10 nM measured up to 420 mins; details: 7 h, 0.01 µM
Acetylcholinesterase [11] = biological target: T3, Acetylcholinesterase; details: 100 uM
Description: Inhibition of human AChE-induced amyloid beta (1 to 40) aggregation at 100 uM measured every 10 mins for 10 hrs by thioflavin T-based fluorometric analysis

[12] = biological target: T2, Amine oxidase [flavin-containing] A; experiment: Time-dependent inhibition of rat liver mitochondrial MAO-A using 5-hydroxytryptamine at 6 nM by scintillation counting; details: 0.006 µM
[13] = biological target: T1, Amine oxidase [flavin-containing] B; experiment: Time-dependent inhibition of rat liver mitochondrial MAO-B using phenylethylamine at 45 nM; details: 0.045 µM
[14] = biological target: T1, Amine oxidase [flavin-containing] B; experiment: Reversible inhibition of rat liver mitochondrial MAO-B using phenylethylamine as substrate assessed as substrate consumption at 100 nM preincubated for 30 mins measured up to 420 mins; details: 7 h, 0.1 µM
[15] = biological target: T2, Amine oxidase [flavin-containing] A; experiment: Irreversible inhibition of rat liver mitochondrial MAO-A using 5-hydroxytryptamine as substrate at 6 nM preincubated for 30 mins measured after three consecutive centrifugation; details: 0.006 µM
[16] = biological target: T1, Amine oxidase [flavin-containing] B; experiment: Reversible inhibition of rat liver mitochondrial MAO-B using phenylethylamine assessed as recovered enzyme activity at 45 nM preincubated for 30 mins measured after three consecutive washes with buffer; set-up: scale not given: the % may be the effect or the level left; details: read-out: Activity
Cholinesterase [17] = biological target: Cholinesterase (Equus caballus, UniProt P81908)
Chain of Cholinesterase (Equus caballus, UniProt P81908) (P81908 whole entry): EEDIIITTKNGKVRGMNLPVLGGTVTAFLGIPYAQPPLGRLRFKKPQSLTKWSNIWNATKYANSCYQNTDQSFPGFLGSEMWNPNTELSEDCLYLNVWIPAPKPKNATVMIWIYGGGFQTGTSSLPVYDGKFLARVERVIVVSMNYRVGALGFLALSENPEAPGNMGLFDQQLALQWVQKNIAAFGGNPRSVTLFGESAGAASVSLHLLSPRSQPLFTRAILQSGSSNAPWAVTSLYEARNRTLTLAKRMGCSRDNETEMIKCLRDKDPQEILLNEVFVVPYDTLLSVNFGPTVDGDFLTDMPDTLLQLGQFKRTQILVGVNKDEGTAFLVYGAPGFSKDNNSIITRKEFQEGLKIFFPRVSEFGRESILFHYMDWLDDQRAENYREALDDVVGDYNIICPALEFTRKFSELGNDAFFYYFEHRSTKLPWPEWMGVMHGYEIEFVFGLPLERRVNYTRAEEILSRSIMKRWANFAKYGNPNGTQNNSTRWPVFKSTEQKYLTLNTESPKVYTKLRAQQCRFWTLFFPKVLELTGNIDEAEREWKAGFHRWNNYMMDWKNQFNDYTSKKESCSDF
Description: Inhibition of equine serum BuchE using butyrylthiocholine iodide as substrate preincubated for 10 mins measured after 15 mins of substrate addition by Ellman's method

C#CCN(C)Cc1cc2cc(OCCCCC3CCN(Cc4ccccc4)CC3)ccc2n1C
IC50 [1]: 2700 nM
IC50 [2]: 10 nM

C#CCN(C)Cc1cc2cc(OCCCN3CCN(Cc4ccccc4)CC3)ccc2n1C
IC50 [1]: 1600 nM
IC50 [2]: 31 nM
IC50 (Acetylcholinesterase [3]): > 100000 nM

C#CCN(C)Cc1cc2cc(OCCN3CCC(Cc4ccccc4)CC3)ccc2n1C
IC50 [1]: 1400 nM
IC50 [2]: 140 nM
IC50 (Acetylcholinesterase [3]): > 100000 nM

C#CCN(C)Cc1cc2cc(OCCCC3CCN(Cc4ccccc4)CC3)ccc2n1C
inhibition (INH) [4]: Active
inhibition (INH) [5]: Active
Ki [6]: 11 nM
IC50 (Acetylcholinesterase [7]): 380 nM
IC50 (Cholinesterase [8]): 1700 nM
inhibition (INH) [9]: Active
inhibition (INH) [10]: Active
inhibition (Acetylcholinesterase [11]): 32.4%
TDI [12]: Active
TDI [13]: Active
inhibition (INH) [14]: Active
inhibition (INH) [15]: Active
activity at 0.045 µM [16]: 80.5%

C#CCN(C)Cc1cc2cc(OCCCN3CCC(Cc4ccccc4)CC3)ccc2n1C
IC50 [1]: 11000 nM

C#CCN(C)Cc1cc2cc(OCc3ccccc3)ccc2n1C
IC50 (Acetylcholinesterase [3]): > 100000 nM
IC50 (Cholinesterase [17]): > 100000 nM
